Reference: ChEMBL document CHEMBL1151877, “Examination of halogen substituent effects on HIV-1 integrase inhibitors derived from 2,3-dihydro-6,7-dihydroxy-1H-isoindol-1-ones and 4,5-dihydroxy-1H-isoindole-1,3(2H)-diones” (Bioorg Med Chem Lett, 2009)

What was measured:
[1] = target: T1, Human immunodeficiency virus type 1 integrase (Human immunodeficiency virus 1, UniProt Q7ZJM1); assay: Inhibition of HIV1 integrase strand transfer activity in presence of magnesium
[2] = target: T1, Human immunodeficiency virus type 1 integrase; assay: Inhibition of HIV1 integrase 3'-processing activity in presence of magnesium
[3] = system: Human immunodeficiency virus 1; assay: Antiviral activity against VSV-g-pseudotyped HIV1 assessed as inhibition of viral infection in human HOS cells pretreated for 3 hrs before viral infection by luciferase reporter gene assay; assay type: functional, organism-based; conditions: Human immunodeficiency virus 1, HOS
[4] = system: HOS; assay: Cytotoxicity against human HOS cells; assay type: cell-based
[5] = target: Human immunodeficiency virus type 1 integrase (Human immunodeficiency virus 1) (UniProt Q7ZJM1); assay: Selectivity ratio of IC50 for HIV1 integrase strand transfer activity to IC50 for HIV1 integrase 3'-processing activity
Sequence of Human immunodeficiency virus type 1 integrase (Human immunodeficiency virus 1) (Q7ZJM1 as listed by the source): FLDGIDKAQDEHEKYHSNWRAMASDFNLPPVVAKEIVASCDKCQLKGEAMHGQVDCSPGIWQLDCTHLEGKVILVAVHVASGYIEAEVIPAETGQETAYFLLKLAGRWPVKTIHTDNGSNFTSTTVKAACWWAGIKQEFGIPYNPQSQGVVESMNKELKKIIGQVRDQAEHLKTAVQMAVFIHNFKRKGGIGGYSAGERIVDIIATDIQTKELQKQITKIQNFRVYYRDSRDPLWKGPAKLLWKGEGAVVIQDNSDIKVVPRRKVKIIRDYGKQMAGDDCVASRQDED

T1 sequence (Q7ZJM1 whole entry): as the sequence (Q7ZJM1 as listed by the source) above

Work on `O=C1c2ccc(O)c(O)c2C(=O)N1Cc1cc(F)cc(F)c1` yielded an IC50 [1] of 400 nM and an IC50 [2] of 48 µM.

`O=C1c2ccc(O)c(O)c2C(=O)N1Cc1c(F)cccc1Cl` showed an IC50 [1] of 3500 nM and an IC50 [2] of 54 µM.

With `O=C1c2ccc(O)c(O)c2C(=O)N1Cc1cc(Cl)ccc1F` the IC50 [1] was 310 nM and the IC50 [2] was 9 µM.

Molecule `O=C1c2c(ccc(O)c2O)CN1Cc1c(F)cccc1Cl` has an IC50 [1] of 18000 nM and an IC50 [2] of over 333 µM.

In the case of `O=C1c2ccc(O)c(O)c2C(=O)N1Cc1cccc(I)c1`, the EC50 [3] is reported as 7770 nM, the IC50 [4] is reported as 12 µM and the IC50 [1] is reported as 1000 nM. It also gave an IC50 [2] of 85 µM.

`O=C1c2ccc(O)c(O)c2C(=O)N1Cc1cccc(Cl)c1` showed an EC50 [3] of 4200 nM, an IC50 [4] of 13.3 µM and an IC50 [1] of 400 nM. The IC50 [2] was 14 µM.

`O=C1c2c(ccc(O)c2O)CN1Cc1cc(F)cc(F)c1` gave an EC50 [3] of 2420 nM, an IC50 [4] of 17.2 µM and an IC50 [1] of 300 nM. The IC50 [2] was 233 µM.

`O=C1c2ccc(O)c(O)c2C(=O)N1Cc1cccc(F)c1` gave an IC50 [1] of 300 nM and an IC50 [2] of 11 µM.

`O=C1c2c(ccc(O)c2O)CN1Cc1ccccc1F` showed an IC50 [1] of 25000 nM and an IC50 [2] of over 333 µM.

`O=C1c2c(ccc(O)c2O)CN1Cc1cc(Cl)ccc1F` was tested, and the IC50 [1] was 1200 nM and the IC50 [2] was 18 µM.

`O=C1c2c(ccc(O)c2O)CN1Cc1cc(F)ccc1F` was tested, and the EC50 [3] was 1240 nM, the IC50 [4] was 13.4 µM and the IC50 [1] was 27000 nM. It also gave an IC50 [2] of over 333 µM.

`O=C1c2ccc(O)c(O)c2C(=O)N1Cc1ccc(F)c(F)c1` showed an EC50 [3] of 5880 nM, an IC50 [4] of 7.94 µM and an IC50 [1] of 100 nM. The IC50 [2] was 27 µM.

`O=C1c2ccc(O)c(O)c2C(=O)N1Cc1cc(F)ccc1F` was tested, and the IC50 [1] was 230 nM and the IC50 [2] was 60 µM.

With `O=C1c2c(ccc(O)c2O)CN1Cc1ccc(F)c(Cl)c1` the EC50 [3] was 480 nM and the IC50 [4] was 6.87 µM.

`O=C1c2ccc(O)c(O)c2C(=O)N1Cc1c(F)c(F)c(F)c(F)c1F` gave an IC50 [1] of 1300 nM and an IC50 [2] of 41 µM.

`O=C1c2ccc(O)c(O)c2C(=O)N1Cc1cccc(Br)c1` gave an EC50 [3] of 3780 nM, an IC50 [4] of 11.4 µM and an IC50 [1] of 400 nM. It also gave an IC50 [2] of 16 µM.

Molecule `O=C1c2c(ccc(O)c2O)CN1Cc1cccc(Cl)c1` has an EC50 [3] of 540 nM, an IC50 [4] of 9.02 µM and an IC50 [1] of 4000 nM. The IC50 [2] was 72 µM.

With `O=C1c2ccc(O)c(O)c2C(=O)N1Cc1c(F)cccc1F` the IC50 [1] was 2000 nM and the IC50 [2] was 103 µM.

`O=C1c2c(ccc(O)c2O)CN1Cc1ccc(F)c(Br)c1` showed an IC50 [1] of 1000 nM and an IC50 [2] of 34 µM.

`O=C1c2ccc(O)c(O)c2C(=O)N1Cc1ccc(Cl)c(Cl)c1` gave an EC50 [3] of 2330 nM, an IC50 [4] of 4.43 µM and an IC50 [1] of 120 nM. The IC50 [2] was 18 µM.

For `O=C1c2c(ccc(O)c2O)CN1Cc1ccc(F)cc1Cl`, the Ratio IC50 [5] was 700, the IC50 [1] was 2500 nM and the IC50 [2] was over 333 µM.

In the case of `O=C1c2c(ccc(O)c2O)CN1Cc1cccc(F)c1F`, the IC50 [1] is reported as 700 nM and the IC50 [2] is reported as 72 µM.

In the case of `O=C1c2ccc(O)c(O)c2C(=O)N1Cc1c(F)ccc(F)c1Cl`, the IC50 [1] is reported as 4000 nM and the IC50 [2] is reported as 34 µM.

`O=C1c2ccc(O)c(O)c2C(=O)N1Cc1cc(Cl)c(F)cc1F` was tested, and the EC50 [3] was 4430 nM, the IC50 [4] was 13.7 µM and the IC50 [1] was 400 nM. The IC50 [2] was 79 µM.

Work on `O=C1c2c(ccc(O)c2O)CN1Cc1ccc(F)c(F)c1F` yielded an IC50 [1] of 2700 nM and an IC50 [2] of 153 µM.

`O=C1c2c(ccc(O)c2O)CN1Cc1cccc(F)c1` was tested, and the EC50 [3] was 1060 nM, the IC50 [4] was 8.6 µM and the IC50 [1] was 21000 nM. The IC50 [2] was 238 µM.

In the case of `O=C1c2ccc(O)c(O)c2C(=O)N1Cc1ccc(F)cc1F`, the IC50 [1] is reported as 300 nM and the IC50 [2] is reported as 16 µM.

Molecule `O=C1c2c(ccc(O)c2O)CN1Cc1ccc(F)cc1F` has an IC50 [1] of 500 nM and an IC50 [2] of 37 µM.

Molecule `O=C1c2ccc(O)c(O)c2C(=O)N1Cc1ccc(F)c(Br)c1` has an IC50 [1] of 900 nM and an IC50 [2] of 11 µM.

With `O=C1c2c(ccc(O)c2O)CN1Cc1c(F)cccc1F` the IC50 [1] was 20000 nM and the IC50 [2] was 71 µM.

`O=C1c2ccc(O)c(O)c2C(=O)N1Cc1ccc(F)c(F)c1F` gave an IC50 [1] of 800 nM and an IC50 [2] of 18 µM.

With `Cc1cc(CN2Cc3ccc(O)c(O)c3C2=O)ccc1F` the IC50 [1] was 900 nM and the IC50 [2] was 17 µM.

With `O=C1c2c(ccc(O)c2O)CN1Cc1ccc(F)c(F)c1` the EC50 [3] was 1080 nM, the IC50 [4] was 9.01 µM and the IC50 [1] was 900 nM. It also gave an IC50 [2] of 72 µM.

`O=C1c2c(ccc(O)c2O)CN1Cc1cccc(Cl)c1F` showed an EC50 [3] of 620 nM, an IC50 [4] of 9.43 µM and an IC50 [1] of 2000 nM. The IC50 [2] was 36 µM.

Molecule `O=C1c2c(ccc(O)c2O)CN1Cc1c(F)ccc(F)c1F` has an IC50 [1] of 25000 nM and an IC50 [2] of over 333 µM.

Molecule `O=C1c2c(ccc(O)c2O)CN1Cc1cccc(Br)c1` has an EC50 [3] of 590 nM, an IC50 [4] of 7.24 µM and an IC50 [1] of 3000 nM. For the same molecule, the IC50 [2] was 264 µM.

`O=C1c2ccc(O)c(O)c2C(=O)N1Cc1cc(F)c(F)c(F)c1` was tested, and the IC50 [1] was 600 nM and the IC50 [2] was 10 µM.

Work on `O=C1c2c(ccc(O)c2O)CN1Cc1c(F)ccc(F)c1Cl` yielded an IC50 [1] of 8900 nM and an IC50 [2] of over 333 µM.

In the case of `O=C1c2ccc(O)c(O)c2C(=O)N1Cc1ccc(F)c(Cl)c1`, the EC50 [3] is reported as 2830 nM, the IC50 [4] is reported as 9.54 µM and the IC50 [1] is reported as 170 nM. It also gave an IC50 [2] of 14 µM.

For `O=C1c2c(ccc(O)c2O)CN1Cc1cc(F)c(F)cc1F`, the IC50 [1] was 3700 nM and the IC50 [2] was over 333 µM.

Molecule `O=C1c2c(ccc(O)c2O)CN1Cc1ccc(Cl)c(F)c1` has an IC50 [1] of 6000 nM and an IC50 [2] of 97 µM.

In the case of `O=C1c2c(ccc(O)c2O)CN1Cc1cc(F)c(F)c(F)c1`, the IC50 [1] is reported as 4000 nM and the IC50 [2] is reported as 99 µM.

Work on `Cc1cc(CN2C(=O)c3ccc(O)c(O)c3C2=O)ccc1F` yielded an IC50 [1] of 800 nM and an IC50 [2] of 11 µM.

For `O=C1c2ccc(O)c(O)c2C(=O)N1Cc1ccc(F)cc1`, the EC50 [3] was 860 nM, the IC50 [1] was 5000 nM and the IC50 [2] was 8 µM.

In the case of `O=C1c2c(ccc(O)c2O)CN1Cc1cccc(I)c1`, the EC50 [3] is reported as 1070 nM, the IC50 [4] is reported as 6.92 µM and the IC50 [1] is reported as 4000 nM. The IC50 [2] was 169 µM.

`O=C1c2ccc(O)c(O)c2C(=O)N1Cc1cc(F)c(F)cc1F` showed an IC50 [1] of 500 nM and an IC50 [2] of 54 µM.

Molecule `O=C1c2c(ccc(O)c2O)CN1Cc1ccc(Cl)c(Cl)c1` has an EC50 [3] of 3300 nM, an IC50 [4] of 5.68 µM and an IC50 [1] of 100 nM. For the same molecule, the IC50 [2] was 89 µM.

With `O=C1c2c(ccc(O)c2O)CN1Cc1cc(Cl)c(F)cc1F` the EC50 [3] was 650 nM, the IC50 [4] was 8.38 µM and the IC50 [1] was 4400 nM. For the same molecule, the IC50 [2] was over 333 µM.

With `O=C1c2ccc(O)c(O)c2C(=O)N1Cc1ccc(F)cc1Cl` the IC50 [1] was 1300 nM and the IC50 [2] was 90 µM.

`O=C1c2ccc(O)c(O)c2C(=O)N1Cc1c(F)ccc(F)c1F` showed an IC50 [1] of 1800 nM and an IC50 [2] of 158 µM.

Work on `O=C1c2ccc(O)c(O)c2C(=O)N1Cc1ccccc1` yielded an EC50 [3] of 11200 nM, an IC50 [1] of 400 nM and an IC50 [2] of 72 µM.

`O=C1c2ccc(O)c(O)c2C(=O)N1Cc1ccc(Cl)c(F)c1` was tested, and the IC50 [1] was 900 nM and the IC50 [2] was 58 µM.

For `O=C1c2ccc(O)c(O)c2C(=O)N1Cc1cccc(Cl)c1F`, the EC50 [3] was 2740 nM, the IC50 [4] was 11.5 µM and the IC50 [1] was 2000 nM. The IC50 [2] was 25 µM.

For `O=C1c2c(ccc(O)c2O)CN1Cc1c(F)c(F)c(F)c(F)c1F`, the IC50 [1] was 8000 nM and the IC50 [2] was 230 µM.

Molecule `O=C1c2ccc(O)c(O)c2C(=O)N1Cc1ccccc1F` has an IC50 [1] of 2000 nM and an IC50 [2] of 68 µM.
